Source: patent publication US20190125888A1, “TARGETED CONJUGATES AND PARTICLES AND FORMULATIONS THEREOF” (priority 2015, published 2019)
Read-outs that look alike come from different tables or passages of the source.

Legend:
[1] = Chrom LogP of maytansinoid conjugates; format: physicochemical
[2] = Ligand charge of maytansinoid conjugates; format: physicochemical
[3] = biological target: human SSTR2 (Homo sapiens, UniProt P30874); experiment: Radioligand-receptor binding assay, [125I] somatostatin, membranes from SSTR2 expressing CHO-K1 cells
human SSTR2, sequence (P30874 whole entry): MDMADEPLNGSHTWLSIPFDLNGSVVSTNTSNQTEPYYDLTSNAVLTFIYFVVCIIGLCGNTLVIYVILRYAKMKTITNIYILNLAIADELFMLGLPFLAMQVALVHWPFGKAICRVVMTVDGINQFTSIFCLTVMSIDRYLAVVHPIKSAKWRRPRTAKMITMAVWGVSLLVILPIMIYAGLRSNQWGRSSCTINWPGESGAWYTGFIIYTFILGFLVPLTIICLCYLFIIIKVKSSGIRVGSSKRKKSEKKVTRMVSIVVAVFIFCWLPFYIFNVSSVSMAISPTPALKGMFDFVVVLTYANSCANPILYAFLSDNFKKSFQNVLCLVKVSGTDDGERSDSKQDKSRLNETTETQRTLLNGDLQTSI
Outline: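 CHO-K1 SSTR2 membranes incubated 4 h with 0.03 nM [125I] somatostatin and conjugates in a 10-point, 6-fold series from 10 uM. Bound radioligand measured after filtration and washing; IC50 by non-linear least-squares regression.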

[4] = system: NCI-H524 (ATCC) human lung cancer cells; format: cell-based
Outline: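 NCI-H524 cells (5,000/well) exposed to conjugates for 6 hours, washed, then grown a further 66 hours; ten-point threefold dilutions from 20 μM. Proliferation by CellTiter-Glo versus vehicle; IC50 by four-parameter nonlinear regression, measured with and without octreotide competition.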

[5] = read-out: H524 IC50 6 h, 6 hours treatment, further 66 hours incubation
[6] = read-out: H524 IC50 with 100 μM octreotide 6 h, with 100 μM octreotide competition, 6 h treatment

Structure (SMILES)	chromatographic logP [1]	Ligand charge [2]	Ki [3]	IC50 [4, 5]	IC50 [4, 6]
CCNC(=O)N[C@H](Cc1ccccc1)C(=O)N[C@H]1CSSC[C@@H](C(=O)N[C@H](C(N)=O)C(C)(C)SSCCC(=O)N(C)[C@@H](C)C(=O)O[C@H]2CC(=O)N(C)c3cc(cc(OC)c3Cl)C/C(C)=C/C=C/[C@@H](OC)[C@@]3(O)C[C@H](OC(=O)N3)[C@@H](C)[C@@H]3O[C@@]23C)NC(=O)[C@H]([C@@H](C)O)NC(=O)[C@H](CCCCN)NC(=O)[C@@H](Cc2c[nH]c3ccccc23)NC(=O)[C@H](Cc2ccc(O)cc2)NC1=O [Conjugate 13]	2.67	+1	0.018 nM	6.5 nM	340 nM
COc1cc2cc(c1Cl)N(C)C(=O)C[C@H](OC(=O)[C@H](C)N(C)C(=O)CCSSC(C)(C)[C@H](NC(=O)[C@@H]1CSSC[C@H](NC(=O)[C@@H](Cc3ccccc3)NS(=O)(=O)Cc3ccc(C(F)(F)F)cc3)C(=O)N[C@@H](Cc3ccc(O)cc3)C(=O)N[C@H](Cc3c[nH]c4ccccc34)C(=O)N[C@@H](CCCCN)C(=O)N[C@@H]([C@@H](C)O)C(=O)N1)C(N)=O)[C@]1(C)O[C@H]1[C@H](C)[C@@H]1C[C@@](O)(NC(=O)O1)[C@H](OC)/C=C/C=C(\C)C2 [Conjugate 14]	3.23	+1	0.041 nM	14 nM	331 nM
COc1cc2cc(c1Cl)N(C)C(=O)C[C@H](OC(=O)[C@H](C)N(C)C(=O)CCSSC[C@H](NC(=O)[C@@H]1CSSC[C@H](NC(=O)[C@@H](Cc3ccccc3)NC(=O)NC3CCCCC3)C(=O)N[C@@H](Cc3ccc(O)cc3)C(=O)N[C@H](Cc3c[nH]c4ccccc34)C(=O)N[C@@H](CCCCN)C(=O)N[C@@H]([C@@H](C)O)C(=O)N1)C(N)=O)[C@]1(C)O[C@H]1[C@H](C)[C@@H]1C[C@@](O)(NC(=O)O1)[C@H](OC)/C=C/C=C(\C)C2 [Conjugate 25]	2.94	+1	0.11 nM	32 nM	123 nM
COc1cc2cc(c1Cl)N(C)C(=O)C[C@H](OC(=O)[C@H](C)N(C)C(=O)CCSSC[C@H](NC(=O)[C@@H]1CSSC[C@H](NC(=O)[C@@H](Cc3ccccc3)NC(=O)NCc3ccccc3)C(=O)N[C@@H](Cc3ccc(O)cc3)C(=O)N[C@H](Cc3c[nH]c4ccccc34)C(=O)N[C@@H](CCCCN)C(=O)N[C@@H]([C@@H](C)O)C(=O)N1)C(N)=O)[C@]1(C)O[C@H]1[C@H](C)[C@@H]1C[C@@](O)(NC(=O)O1)[C@H](OC)/C=C/C=C(\C)C2 [Conjugate 28]	2.51	+1	0.057 nM	6.1 nM	31 nM
CCNC(=O)N[C@H](Cc1ccccc1)C(=O)N[C@H]1CSSC[C@@H](C(=O)N[C@@H](CSSCCC(=O)N(C)[C@@H](C)C(=O)O[C@H]2CC(=O)N(C)c3cc(cc(OC)c3Cl)C/C(C)=C/C=C/[C@@H](OC)[C@@]3(O)C[C@H](OC(=O)N3)[C@@H](C)[C@@H]3O[C@@]23C)C(=O)NCC)NC(=O)[C@H]([C@@H](C)O)NC(=O)[C@H](CCCCN)NC(=O)[C@@H](Cc2c[nH]c3ccccc23)NC(=O)[C@H](Cc2ccc(O)cc2)NC1=O [Conjugate 30]	2.79	+1	0.071 nM	2.4 nM	27 nM
COc1cc2cc(c1Cl)N(C)C(=O)C[C@H](OC(=O)[C@H](C)N(C)C(=O)CCSSC[C@H](NC(=O)[C@@H]1CSSC[C@H](NC(=O)[C@@H](Cc3ccccc3)NS(C)(=O)=O)C(=O)N[C@@H](Cc3ccc(O)cc3)C(=O)N[C@H](Cc3c[nH]c4ccccc34)C(=O)N[C@@H](CCCCN)C(=O)N[C@@H]([C@@H](C)O)C(=O)N1)C(N)=O)[C@]1(C)O[C@H]1[C@H](C)[C@@H]1C[C@@](O)(NC(=O)O1)[C@H](OC)/C=C/C=C(\C)C2 [Conjugate 34]	2.57	+1	0.18 nM	13 nM	83 nM
COc1cc2cc(c1Cl)N(C)C(=O)C[C@H](OC(=O)[C@H](C)N(C)C(=O)CCSSC[C@H](NC(=O)[C@@H]1CSSC[C@H](NC(=O)[C@@H](Cc3ccccc3)NC(=O)NCc3ccc(C(F)(F)F)cc3)C(=O)N[C@@H](Cc3ccc(O)cc3)C(=O)N[C@H](Cc3c[nH]c4ccccc34)C(=O)N[C@@H](CCCCN)C(=O)N[C@@H]([C@@H](C)O)C(=O)N1)C(N)=O)[C@]1(C)O[C@H]1[C@H](C)[C@@H]1C[C@@](O)(NC(=O)O1)[C@H](OC)/C=C/C=C(\C)C2 [Conjugate 37]	3.07	+1	0.16 nM	3.7 nM	93 nM
COc1cc2cc(c1Cl)N(C)C(=O)C[C@H](OC(=O)[C@H](C)N(C)C(=O)CCSSC[C@H](NC(=O)[C@@H]1CSSC[C@H](NC(=O)[C@@H](Cc3ccccc3)NC(=O)Nc3cc(C(F)(F)F)cc(C(F)(F)F)c3)C(=O)N[C@@H](Cc3ccc(O)cc3)C(=O)N[C@H](Cc3c[nH]c4ccccc34)C(=O)N[C@@H](CCCCN)C(=O)N[C@@H]([C@@H](C)O)C(=O)N1)C(N)=O)[C@]1(C)O[C@H]1[C@H](C)[C@@H]1C[C@@](O)(NC(=O)O1)[C@H](OC)/C=C/C=C(\C)C2 [Conjugate 38]	3.47	+1	5.34 nM	261 nM	296 nM
COc1cc2cc(c1Cl)N(C)C(=O)C[C@H](OC(=O)[C@H](C)N(C)C(=O)CCSSC[C@H](NC(=O)[C@@H]1CSSC[C@H](NC(=O)[C@@H](Cc3ccccc3)NC(=O)NCCC(c3ccccc3)c3ccccc3)C(=O)N[C@@H](Cc3ccc(O)cc3)C(=O)N[C@H](Cc3c[nH]c4ccccc34)C(=O)N[C@@H](CCCCN)C(=O)N[C@@H]([C@@H](C)O)C(=O)N1)C(N)=O)[C@]1(C)O[C@H]1[C@H](C)[C@@H]1C[C@@](O)(NC(=O)O1)[C@H](OC)/C=C/C=C(\C)C2 [Conjugate 41]	3.29	+1	0.5 nM	41 nM	97 nM
COc1cc2cc(c1Cl)N(C)C(=O)C[C@H](OC(=O)[C@H](C)N(C)C(=O)CCSSC[C@H](NC(=O)[C@@H]1CSSC[C@H](NC(=O)[C@@H](Cc3ccccc3)NC(=O)Nc3ccccc3)C(=O)N[C@@H](Cc3ccc(O)cc3)C(=O)N[C@H](Cc3c[nH]c4ccccc34)C(=O)N[C@@H](CCCCN)C(=O)N[C@@H]([C@@H](C)O)C(=O)N1)C(N)=O)[C@]1(C)O[C@H]1[C@H](C)[C@@H]1C[C@@](O)(NC(=O)O1)[C@H](OC)/C=C/C=C(\C)C2 [Conjugate 42]	2.87	+1	0.042 nM	1.7 nM	115 nM
COc1cc2cc(c1Cl)N(C)C(=O)C[C@H](OC(=O)[C@H](C)N(C)C(=O)CCSSC[C@H](NC(=O)[C@@H]1CSSC[C@H](NC(=O)[C@H](N)Cc3ccccc3)C(=O)N[C@@H](Cc3ccc(O)cc3)C(=O)N[C@H](Cc3c[nH]c4ccccc34)C(=O)N[C@@H](CCCCNC(=O)NCCCCCCN)C(=O)N[C@@H]([C@@H](C)O)C(=O)N1)C(N)=O)[C@]1(C)O[C@H]1[C@H](C)[C@@H]1C[C@@](O)(NC(=O)O1)[C@H](OC)/C=C/C=C(\C)C2 [Conjugate 56]	1.92	+2	1900 nM	246 nM	361 nM
COc1cc2cc(c1Cl)N(C)C(=O)C[C@H](OC(=O)[C@H](C)N(C)C(=O)CCSSC(C)(C)[C@H](NC(=O)[C@@H]1CSSC[C@H](NC(=O)[C@H](N)Cc3ccccc3)C(=O)N[C@@H](Cc3ccc(O)cc3)C(=O)N[C@H](Cc3c[nH]c4ccccc34)C(=O)N[C@@H](CCCCNC(=O)NCCCCCCN)C(=O)N[C@@H]([C@@H](C)O)C(=O)N1)C(N)=O)[C@]1(C)O[C@H]1[C@H](C)[C@@H]1C[C@@](O)(NC(=O)O1)[C@H](OC)/C=C/C=C(\C)C2 [Conjugate 57]	2.12	+2	69 nM	408 nM	652 nM
